In patent US20170066759A1, “AROMATIC 5-MEMBERED HETEROCYCLIC DERIVATIVE HAVING TRPV4-INHIBITING ACTIVITY” (Shionogi & Co., Ltd., priority 2012, published 2017):

Biological target: T1, human TRPV4 (hTRPV4/CHO cells) (Homo sapiens, UniProt Q9HBA0)
T1 construct: expressed in transfected cells; host or cells: CHO-K1
Test: Test Example 1: TRPV4 inhibitory activity (IC50 value), 4α-PDD stimulation, Fluo4 calcium fluorescence (FLIPR TETRA)
Format: cell-based
Settings: Test Example 1, 4α-PDD stimulation, read-out: Test 1 IC50

T1 sequence (Q9HBA0 whole entry): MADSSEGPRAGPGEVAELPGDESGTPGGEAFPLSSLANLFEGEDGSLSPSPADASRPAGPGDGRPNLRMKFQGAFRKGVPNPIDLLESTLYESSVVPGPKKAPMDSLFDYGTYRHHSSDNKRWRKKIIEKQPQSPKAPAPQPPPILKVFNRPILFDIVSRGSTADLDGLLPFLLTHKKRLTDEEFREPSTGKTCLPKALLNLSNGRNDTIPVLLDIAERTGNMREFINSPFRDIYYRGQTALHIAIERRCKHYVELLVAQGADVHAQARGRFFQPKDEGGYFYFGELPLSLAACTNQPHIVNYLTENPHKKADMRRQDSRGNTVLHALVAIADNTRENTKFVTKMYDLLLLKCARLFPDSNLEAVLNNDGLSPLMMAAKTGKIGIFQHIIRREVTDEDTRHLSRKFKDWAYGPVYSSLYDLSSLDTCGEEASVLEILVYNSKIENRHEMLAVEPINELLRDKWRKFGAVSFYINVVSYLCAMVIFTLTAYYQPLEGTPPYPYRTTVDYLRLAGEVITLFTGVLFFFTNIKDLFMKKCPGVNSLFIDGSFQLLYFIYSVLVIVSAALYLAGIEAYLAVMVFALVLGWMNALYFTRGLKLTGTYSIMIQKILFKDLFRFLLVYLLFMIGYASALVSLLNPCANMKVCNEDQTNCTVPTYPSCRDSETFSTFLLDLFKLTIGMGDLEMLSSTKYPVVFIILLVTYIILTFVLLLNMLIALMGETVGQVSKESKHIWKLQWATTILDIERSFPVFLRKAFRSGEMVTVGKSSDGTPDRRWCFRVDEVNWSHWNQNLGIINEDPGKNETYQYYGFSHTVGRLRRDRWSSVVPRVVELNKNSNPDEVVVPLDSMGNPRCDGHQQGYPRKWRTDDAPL

IC50 [nM]	Structure (SMILES)
< 100	Cc1nc(C)c(-c2csc(NC(=O)Cn3cc(C4CCCCC4)nn3)n2)s1 [Compound I-190]
< 100	Cc1nc(C)c(-c2csc(NC(=O)Cn3cc(-c4ccccc4)nn3)n2)s1 [Compound I-191]
1000 to 8000	Cc1nc(C)c(-c2csc(NC(=O)[C@H]3C[C@H](c4ccccc4)CN3)n2)s1 [Compound I-192]
1000 to 8000	Cc1nc(C)c(-c2csc(NC(=O)[C@H]3C[C@@H](c4ccccc4)CN3)n2)s1 [Compound I-193]
1000 to 8000	Cc1nc(C)c(-c2csc(NC(=O)C3CCCN(S(=O)(=O)c4ccccc4)C3)n2)s1 (stereo not drawn) [Compound I-194]
< 100	Cc1nc(C)c(-c2csc(NC(=O)C3Cc4ccc(Cl)c(Cl)c4O3)n2)s1 (stereo not drawn) [Compound I-195]
< 100	Cc1nc(C)c(-c2csc(NC(=O)C3Cc4cc(S(=O)(=O)N(C)C)c(Cl)c(Cl)c4O3)n2)s1 (stereo not drawn) [Compound I-196]
100 to 1000	Cc1nc(C)c(-c2csc(NC(=O)C3CCN(S(=O)(=O)c4ccc(F)cc4)CC3)n2)s1 [Compound I-197]
100 to 1000	CCNCc1nc(C)sc1-c1csc(NC(=O)Cc2c(F)cccc2F)n1 [Compound I-198]
100 to 1000	Cc1nc(CO)sc1-c1csc(NC(=O)C2CC(=O)N(c3ccccc3)C2)n1 (stereo not drawn) [Compound I-199]
1000 to 8000	COc1ccc(N2CC(C(=O)Nc3nc(-c4sc(CO)nc4C)cs3)CC2=O)cc1 (stereo not drawn) [Compound I-200]
< 100	Cc1nc(C)c(-c2csc(NC(=O)C3Cc4c([N+](=O)[O-])cc(Cl)c(Cl)c4O3)n2)s1 (stereo not drawn) [Compound I-201]
< 100	Cc1nc(CO)sc1-c1csc(NC(=O)[C@H]2C[C@H](F)C2)n1 [Compound I-202]
1000 to 8000	Cc1nc(CO)sc1-c1csc(NC(=O)[C@H]2C[C@@H](F)C2)n1 [Compound I-203]
< 100	Cc1nc(CO)sc1-c1csc(NC(=O)C2CCN(c3ccc(Cl)cc3)C2)n1 (stereo not drawn) [Compound I-204]
100 to 1000	Cc1nc(C)c(-c2csc(NC(=O)C3CC(C(C)(C)C)=NO3)n2)s1 (stereo not drawn) [Compound I-205]
100 to 1000	Cc1nc(C)c(-c2csc(NC(=O)C3CC(c4ccccc4)=NO3)n2)s1 (stereo not drawn) [Compound I-206]
100 to 1000	Cc1nc(CO)sc1-c1csc(NC(=O)C2CC(c3ccccc3)=NO2)n1 (stereo not drawn) [Compound I-207]
< 100	Cc1nc(CO)sc1-c1csc(NC(=O)C2CN(Cc3ccc(C(F)(F)F)cc3)C2)n1 [Compound I-208]
1000 to 8000	Cc1nc(CO)sc1-c1csc(NC(=O)C2CCN(Cc3ccccc3)C2)n1 (stereo not drawn) [Compound I-209]
< 100	Cc1nc(C)c(-c2csc(NC(=O)[C@@H]3C[C@@H](c4ccccc4)CN3C(=O)OC(C)(C)C)n2)s1 [Compound I-210]
100 to 1000	Cc1nc(C)c(-c2csc(NC(=O)[C@H]3CC[C@@H](c4ccccc4)N3C(=O)OC(C)(C)C)n2)s1 [Compound I-211]
< 100	Cc1nc(C)c(-c2csc(NC(=O)[C@@H]3CC[C@H](c4ccccc4)N3C(=O)OC(C)(C)C)n2)s1 [Compound I-212]
100 to 1000	Cc1nc(CO)sc1-c1csc(NC(=O)C2CCN(CC(F)(F)F)C2)n1 (stereo not drawn) [Compound I-213]
100 to 1000	Cc1nc(CO)sc1-c1csc(NC(=O)C2CCN(S(=O)(=O)C(F)(F)F)C2)n1 (stereo not drawn) [Compound I-214]

IC50 [nM]	Structure (SMILES)
100 to 1000	Cc1nc(C)c(-c2csc(NC(=O)[C@H]3CC[C@@H](c4ccccc4)N3)n2)s1 [Compound I-215]
100 to 1000	Cc1nc(C)c(-c2csc(NC(=O)[C@@H]3CC[C@H](c4ccccc4)N3)n2)s1 [Compound I-216]
1000 to 8000	Cc1nc(C)c(-c2csc(NC(=O)[C@@H]3C[C@@H](c4ccccc4)CN3C)n2)s1 [Compound I-217]
< 100	Cc1nc(C)c(-c2csc(NC(=O)[C@@H]3C[C@@H](c4ccccc4)CN3C(=O)C(F)(F)F)n2)s1 [Compound I-218]
100 to 1000	CCN(CC)Cc1nc(CO)sc1-c1csc(NC(=O)Cc2ccc(S(=O)(=O)C(F)(F)F)cc2)n1 [Compound I-236]
100 to 1000	CCNCc1nc(CO)sc1-c1csc(NC(=O)Cc2ccc(S(=O)(=O)C(F)(F)F)cc2)n1 [Compound I-237]
1000 to 8000	Cc1nc(CO)sc1-c1csc(NC(=O)C2CC(OCc3ccncc3)C2)n1 (stereo not drawn) [Compound I-240]
100 to 1000	Cc1nc(CO)sc1-c1csc(NC(=O)CN2Cc3ccccc3C2)n1 [Compound I-241]
< 100	Cc1nc(C)c(-c2csc(NC(=O)[C@@H]3C[C@@H](Oc4ccccc4)CN3C(=O)OC(C)(C)C)n2)s1 [Compound I-242]
100 to 1000	Cc1nc(C)c(-c2csc(NC(=O)[C@H]3C[C@@H](c4ccccc4)CN3C(=O)OC(C)(C)C)n2)s1 [Compound I-243]
100 to 1000	Cc1nc(C)c(-c2csc(NC(=O)[C@@H]3C[C@@H](Oc4ccccc4)CN3)n2)s1 [Compound I-244]
< 100	Cc1nc(C)c(-c2csc(NC(=O)[C@H]3C[C@H](c4ccccc4)CN3C(=O)OC(C)(C)C)n2)s1 [Compound I-245]
< 100	Cc1nc(C)c(-c2csc(NC(=O)[C@@H]3C[C@H](c4ccccc4)CN3C(=O)OC(C)(C)C)n2)s1 [Compound I-246]
1000 to 8000	Cc1nc(CO)sc1-c1csc(NC(=O)C2CC(OCc3cccnc3)C2)n1 (stereo not drawn) [Compound I-247]
1000 to 8000	O=C(Nc1nc(-c2sc(CO)nc2CO)cs1)[C@H]1C[C@H](F)C1 [Compound I-248]
100 to 1000	Cc1nc(C)c(-c2csc(NC(=O)[C@@H]3CCCN3C(=O)OC(C)(C)C)n2)s1 [Compound I-249]
< 100	Cc1nc(C)c(-c2csc(NC(=O)[C@@H]3C[C@@H](Oc4ccccc4)CN3C(=O)C(F)(F)F)n2)s1 [Compound I-250]
1000 to 8000	CC(=O)N1C[C@H](Oc2ccccc2)C[C@H]1C(=O)Nc1nc(-c2sc(C)nc2C)cs1 [Compound I-251]
1000 to 8000	Cc1nc(C)c(-c2csc(NC(=O)[C@@H]3C[C@@H](Oc4ccccc4)CN3C(=O)CO)n2)s1 [Compound I-252]
100 to 1000	O=C(Nc1nc(-c2sc(CO)nc2CO)cs1)C1CCC(C(F)(F)F)CC1 (stereo not drawn) [Compound I-253]
< 100	O=C(Nc1nc(-c2sc(CO)nc2CO)cs1)C1CCC(C(F)(F)F)CC1 (stereo not drawn) [Compound I-254]
1000 to 8000	NC(=O)c1nc(CO)c(-c2csc(NC(=O)Cc3ccc(S(=O)(=O)C(F)(F)F)cc3)n2)s1 [Compound I-255]
1000 to 8000	Cc1nc(C)c(-c2csc(NC(=O)C3CN(C(=O)c4ccccc4)C3)n2)s1 [Compound I-256]
100 to 1000	Cc1nc(C)c(-c2csc(NC(=O)C3CN(C(=O)c4ccc(C(F)(F)F)cc4)C3)n2)s1 [Compound I-257]
< 100	Cc1nc(C)c(-c2csc(NC(=O)C3CN(Cc4ccc(C(F)(F)F)cc4)C3)n2)s1 [Compound I-258]

IC50 [nM]	Structure (SMILES)
< 100	Cc1nc(C)c(-c2csc(NC(=O)C3CN(c4ccc(C(F)(F)F)cn4)C3)n2)s1 [Compound I-259]
< 100	Cc1nc(C)c(-c2csc(NC(=O)C3CN(Cc4ccccc4C(F)(F)F)C3)n2)s1 [Compound I-260]
100 to 1000	COC(=O)c1ccc(C(=O)N2CC(C(=O)Nc3nc(-c4sc(C)nc4C)cs3)C2)cc1 [Compound I-261]
< 100	Cc1nc(C)c(-c2csc(NC(=O)C3CN(Cc4cccc(C(F)(F)F)c4)C3)n2)s1 [Compound I-262]
100 to 1000	COC(=O)c1ccc(CN2CC(C(=O)Nc3nc(-c4sc(C)nc4C)cs3)C2)cc1 [Compound I-263]
< 100	Cc1nc(C)c(-c2csc(NC(=O)C3CN(S(=O)(=O)c4ccc(C(F)(F)F)cc4)C3)n2)s1 [Compound I-264]
100 to 1000	Cc1nc(C)c(-c2csc(NC(=O)[C@H](Cc3ccccc3)NC(=O)OC(C)(C)C)n2)s1 [Compound I-265]
100 to 1000	Cc1nc(C)c(-c2csc(NC(=O)[C@H](CCc3ccccc3)NC(=O)OC(C)(C)C)n2)s1 [Compound I-266]
1000 to 8000	Cc1nc(CO)sc1-c1csc(NC(=O)C2CC(=O)C2)n1 [Compound I-267]
100 to 1000	CO[C@H]1C[C@H](C(=O)Nc2nc(-c3sc(C)nc3C)cs2)C1 [Compound I-268]
1000 to 8000	CO[C@H]1C[C@@H](C(=O)Nc2nc(-c3sc(C)nc3C)cs2)C1 [Compound I-269]
100 to 1000	CCOC(=O)c1nc(C)c(-c2csc(NC(=O)C3Oc4cc(Cl)c(Cl)cc4O3)n2)s1 [Compound I-270]
< 100	Cc1nc(C)c(-c2csc(NC(=O)[C@@H]3C[C@H](c4ccccc4)CN3C(=O)C(F)(F)F)n2)s1 [Compound I-271]
< 100	Cc1nc(C)c(-c2csc(NC(=O)[C@@H]3C[C@@H](N4CCC(c5ccccc5)CC4)CN3C(=O)OC(C)(C)C)n2)s1 [Compound I-272]
< 100	Cc1nc(CO)sc1-c1csc(NC(=O)C2Oc3cc(Cl)c(Cl)cc3O2)n1 [Compound I-273]
1000 to 8000	Cc1nc(C)c(-c2csc(NC(=O)[C@@H]3C[C@@H](N4CCC(c5ccccc5)CC4)CN3)n2)s1 [Compound I-274]
1000 to 8000	Cc1nc(C)c(-c2csc(NC(=O)[C@@H]3C[C@@H](N4CCCCC4)CN3C(=O)OC(C)(C)C)n2)s1 [Compound I-275]
< 100	Cc1nc(C)c(-c2csc(NC(=O)[C@@H]3C[C@@H](N4CCC(c5ccccc5)CC4)CN3C(=O)C(F)(F)F)n2)s1 [Compound I-276]
< 100	Cc1nc(CO)sc1-c1csc(NC(=O)[C@@H]2C[C@@H](c3ccccc3)CN2C(=O)OC(C)(C)C)n1 [Compound I-277]
< 100	Cc1nc(C)c(-c2csc(NC(=O)C3CN(c4ncc(C(F)(F)F)cn4)C3)n2)s1 [Compound I-278]
1000 to 8000	CCOC(=O)C(C)(C)N1CC(C(=O)Nc2nc(-c3sc(C)nc3C)cs2)C1 [Compound I-279]
< 100	Cc1nc(C)c(-c2csc(NC(=O)C3CN(c4ccccc4C(F)(F)F)C3)n2)s1 [Compound I-280]
100 to 1000	Cc1nc(C)c(-c2csc(NC(=O)C3CN(CC(F)(F)F)C3)n2)s1 [Compound I-281]
100 to 1000	Cc1nc(C)c(-c2csc(NC(=O)C3CN(Cc4ccc(C(F)(F)F)nc4)C3)n2)s1 [Compound I-282]
1000 to 8000	COc1ccc(CN2CC(C(=O)Nc3nc(-c4sc(C)nc4C)cs3)C2)cn1 [Compound I-283]
